Assay results taken from patent publication US20260265771A1, “METHODS OF INCREASING THE REGENERATION EFFICIENCY IN PLANTS” (Institute of Genetics and Developmental Biology Chinese …, priority 2022, published 2026).
Where “and” joins values, the source holds several entries; their conditions need not be identical. Equal entries are not always repeated. Entries after “also recorded” stand apart in the source; their conditions may differ.

What was measured:
LA1777 tomatoes = experiment: Shoot regeneration of recalcitrant wild tomato LA1777; type: cell-based, S. habrochaites; conditions: LA1777, 1 nM REF1 vs REF1 absent
Method: (a) photos of LA1777 grown in the presence and absence of 1 nM REF1. (b) relative regeneration frequency of LA1777 grown in the presence and absence of 1 nM REF1. (c) number of hypocotyl of LA1777 grown in the presence and absence of 1 nM REF1.
(a) photos of control LA1777 tomatoes, PRR expressing LA1777 tomatoes, RER expressing LA1777 tomatoes, and PRR and RER expressing LA1777 tomatoes exposed to 1 nM REF1 for 25 days, or absence of REF1 (mock). (b) relative regeneration frequency of control LA1777 tomatoes, PRR expressing LA1777 tomatoes, RER expressing LA1777 tomatoes, and PRR and RER expressing LA1777 tomatoes exposed to 1 nM REF1 for 25 days, or absence of REF1 (mock).
The effect of exogenously applied REF1 in a shoot inducing growth medium was investigated in LA1777 tomatoes by growing LA1777 tomatoes in the presence and absence of 1 nM REF1. […] Likewise, FIG. 20B shoes that relative regeneration frequency of LA1777 was 6-fold higher when grown in the presence of REF1 compared to when REF1 was absent, similarly, the number of hypocotyl was also higher in the presence of REF1.

SIWIND1 promoter = SIWIND1 promoter activity (pSIWIND1::GUS) in cut hypocotyls; type: cell-based, tomato; conditions: cut hypocotyls on MS medium with or without 1 nM REF1
Method: (a) Induction of the SIWIND1 promoter activity at the wound sites of hypocotyl explants. Hypocotyl explants of 7-d-old pSIWIND1::GUS plants were cultured on MS medium with or without 1 nM REF1. Representative images of hypocotyls at indicated time after wounding are shown. Bars, 1 mm. […] Hypocotyls of 7-d-old seedlings of the indicated genotypes were cut and hypocotyl explants were cultured on MS medium for 9 h before gene expression analysis. Hypocotyls of undamaged seedlings were harvested as control. Data are mean±SD, n=3 biological repeats. (c and d) REF1-induced callus formation in WT and sIwind1 mutants. Hypocotyl explants were cultured on CIM with or without 1 nM REF1 for 14 d before callus phenotype was scored. Shown are representative callus images (c) and quantification of the callus projection area (d). […] Hypocotyl explants were cultured on CIM for 14 d and then transferred to SIM with or without 1 nM REF1 for 21 d before shoot organogenesis phenotype was scored. […] Hypocotyl explants were cultured on CIM for 14 d before callus phenotype was scored. Shown are representative callus images (g) and quantification of the callus projection area (h). […] Hypocotyl explants were cultured on CIM for 14 d and then transferred to SIM for 21 d before shoot organogenesis phenotype was scored. […] In (h) and (j), statistical significance was determined by a student's t test (***p<0.001, **p<0.01, *p<0.05). […]

ATDRRGRPPSRPKVGSGPPPQNN (listed as Solanum lycopersicum) [REF1, 23 amino acid tomato peptide cleaved from precursor PROSIPEP]
number of hypocotyl (LA1777 tomatoes): higher | relative regeneration frequency, increase (LA1777 tomatoes): ~ 6 fold and 6 fold | shoot regeneration (LA1777 tomatoes): greater shoot regeneration; also recorded: promotes shoot regeneration | SIWIND1 promoter activity / expression (SIWIND1 promoter): enhanced; also recorded: promoting SIWIND1 expression
